Measured values from PubChem BioAssay AID1996.
In brackets after ≈: the same amount, converted by molar mass.

Details: buffer; pH 7.4; 200.0 µM

Point of comparison: `Cn1cccc1C1CCCN1CC(=O)Nc1ccc(C#N)c(Cl)c1` (stereo unspecified), solubility kinetic 12.3 µg/mL (≈ 35.9 µM). Against it:
- CC(CN1CCCC1)OC(=O)c1ccc(Cl)cc1.Cl (stereo unspecified) — higher, > 45.6 µg/mL
- Cc1c(Cl)cccc1NC(=S)Nc1ccccn1 — 12-fold lower, 1 µg/mL (≈ 3.6 µM)
- CCC(CO)NC(=O)c1ccccc1C(F)(F)F (stereo unspecified) — 2.3-fold higher, 28 µg/mL (≈ 107 µM)
- c1cncc(-c2csc(-c3cccnc3)n2)c1 — higher, > 35.9 µg/mL
- Br.COc1ccc(-c2nc3n(c2C)CCC3)cc1 — higher, > 46.4 µg/mL
- N#Cc1ccccc1COC(=O)CCC(=O)c1cccs1 — higher, > 44.9 µg/mL
- CCc1cccc(NC(=O)COC(=O)/C=C/c2cccs2)c1 — 1.5-fold lower, 8.2 µg/mL (≈ 26 µM)
- COc1ccccc1C(=O)NC(=O)COC(=O)C1CCC1 — higher, > 43.7 µg/mL
- Oc1ccc(/C=C/c2ccc3cccc(O)c3n2)cc1Br — 11-fold lower, 1.1 µg/mL (≈ 3.21 µM)
- O=c1cc(-c2ccccc2)nc(Sc2ccc([N+](=O)[O-])cc2[N+](=O)[O-])[nH]1 — 3.7-fold lower, 3.3 µg/mL (≈ 8.91 µM)
- COCCSc1nnc(NC(=O)c2ccco2)s1 — higher, > 42.8 µg/mL
- CC1(C)CC(=O)C(C=Nc2ccc(N)cc2)=C(O)C1 — higher, > 38.7 µg/mL
- CC(C)CCNC(=O)c1ccc2c(c1)ncn2C1CCCC1 — higher, > 44.9 µg/mL
- Oc1cccc2ccc(N3CCOCC3)nc12 — higher, > 34.5 µg/mL
- Cc1cccc(NC(=O)CN2C(=O)NC3(CCCCCCC3)C2=O)c1C — 4-fold higher, 49 µg/mL (≈ 137 µM)
- C=C(C)C(=O)Oc1ccc(N2C(=O)CCC2=O)cc1 — higher, > 38.9 µg/mL
- O=C(COC(=O)C1CCN(S(=O)(=O)c2cccs2)CC1)Nc1ccc(F)cc1Cl — within 1.5-fold, 17.7 µg/mL (≈ 38.4 µM)
- CCOc1ccc([N+](=O)[O-])cc1CNC1CCCCCCC1.Cl — higher, > 51.4 µg/mL
- Cc1cccc(C)c1NC(=S)NC(C)(C)CO — higher, > 37.9 µg/mL
- O=C(CN1C(=O)c2ccccc2S1(=O)=O)Nc1ccc([N+](=O)[O-])cc1 — 2.1-fold lower, 6 µg/mL (≈ 16.6 µM)
- O=C(CNS(=O)(=O)c1ccccc1)NCc1ccco1 — higher, > 44.1 µg/mL
- O=C(NCCNC(=O)c1cnccn1)c1cccc(Cl)c1 — 3.5-fold higher, 42.7 µg/mL (≈ 140 µM)
- Cc1ccccc1S(=O)(=O)/N=C(/Nc1nc2ccccc2s1)c1ccccc1 — 11-fold lower, 1.1 µg/mL (≈ 2.7 µM)
- CC(=O)Oc1ccc(C(=O)Nc2cccc3c2CCCC3)cc1 — 3.6-fold lower, 3.4 µg/mL (≈ 11 µM)
- CCOc1ccc(NC(=O)c2ccc(NC(=O)c3ccc(NC(N)=O)cc3)cc2)cc1 — 6.2-fold lower, 2 µg/mL (≈ 4.78 µM)
- CC(C)Oc1cccc(C(=O)NC2=NCCS2)c1 — 1.8-fold higher, 22 µg/mL (≈ 83.2 µM)
- C=CCSc1nc(C)cc2c1C(=O)OC2 — higher, > 33.2 µg/mL
- COc1ccc(-c2csc(N)n2)cc1F — 1.9-fold higher, 23.8 µg/mL (≈ 106 µM)
- CCCC/C(O)=C1\C(=O)CC(C)(C)CC1=Nc1ccc(N)cc1 — higher, > 47.2 µg/mL
- CN(C)c1ccc(C(CN)c2c[nH]c3ccccc23)cc1 (stereo unspecified) — 2.5-fold higher, 30.2 µg/mL (≈ 108 µM)
- Cc1cc(C)nc(/N=C(\N)Nc2ccc(OCCC(C)C)cc2)n1 — higher, > 49.1 µg/mL
- Cc1nc(NC(=O)COC(=O)C2CC3CCCC(C2)C3=O)c(Cl)cc1Cl (stereo unspecified) — higher, > 59.9 µg/mL
- OCCN(CCO)CC(O)COc1ccc(Br)cc1 (stereo unspecified) — 1.8-fold lower, 6.7 µg/mL (≈ 20 µM)
- CCOC(=O)C1CCN(C(=O)Nc2cccc(OC)c2)CC1 — higher, > 46 µg/mL
- CCOc1cc(C(=S)N2CCCC2)ccc1OC — higher, > 39.8 µg/mL
- O=C(CNC(c1ccccc1)c1ccccc1)Nc1ccccc1F — lower, < 0.4 µg/mL
- CCOc1ccccc1NC(=O)Nc1ccc(CC#N)cc1 — 3.1-fold higher, 37.8 µg/mL (≈ 128 µM)
- Cc1ccc(NS(=O)(=O)c2ccc3c(c2)oc(=O)n3C)cc1 — 7.7-fold lower, 1.6 µg/mL (≈ 5.03 µM)
- Cc1ccc(C2=N/C(=C\c3cccc(F)c3)C(=O)O2)cc1 — lower, < 0.6 µg/mL
- Cc1cc(C)c(C#N)c(Nc2ccccc2F)n1 — 2.4-fold lower, 5.1 µg/mL (≈ 21.1 µM)
- CNC(=O)CSc1nc2ccccc2c(=O)n1CCc1ccccc1 — lower, < 0.3 µg/mL
- CC(C)(C)NC(=S)NC1CC1 — 2.1-fold higher, 25.8 µg/mL (≈ 150 µM)
- Cc1cccc(C(CC(=O)NCc2ccco2)c2ccccc2)c1O (stereo unspecified) — higher, > 50.3 µg/mL
- COc1ccc(NC(=O)Nc2cc(F)ccc2C)cc1 — 10-fold lower, 1.2 µg/mL (≈ 4.37 µM)
- O=c1c([N+](=O)[O-])c(N2CCCC2)c2ccccc2n1-c1ccccc1 — 3.8-fold higher, 46.7 µg/mL (≈ 139 µM)
- C=CC(=O)NC(C)(C)CCN1CCOCC1 — higher, > 33.9 µg/mL
- O=C(Cn1cc(C(=O)C2CC2)c2ccccc21)Nc1ccc(F)cc1 — 18-fold lower, 0.7 µg/mL (≈ 2.08 µM)
- COC(=O)C(C)Oc1ccc(-c2nccc(-c3ccc(F)cc3)n2)cc1 (stereo unspecified) — 4.7-fold lower, 2.6 µg/mL (≈ 7.38 µM)
- CCCCN(C(=O)C1CCCC1)C1CCS(=O)(=O)C1 (stereo unspecified) — higher, > 43.1 µg/mL
- COC(=O)NC(=C(Cl)Cl)P(=O)(c1ccccc1)c1ccccc1 — higher, > 55.5 µg/mL
- Cc1nc(N)c(C#N)c(-c2cccnc2)c1-c1ccccc1 — 21-fold lower, 0.6 µg/mL (≈ 2.1 µM)
- CC1CCN(C2=NC(=O)/C(=C/c3cccc(O)c3)S2)CC1 — 5.3-fold lower, 2.3 µg/mL (≈ 7.61 µM)
- CN1C(=S)SC(C)(C)C1N(O)C(=O)Nc1ccc(Cl)cc1 (stereo unspecified) — 2.9-fold lower, 4.2 µg/mL (≈ 12.1 µM)
- COc1ccc(Cn2c(=O)oc3ccccc32)cc1F — 11-fold lower, 1.1 µg/mL (≈ 4.03 µM)
- O=C(NCCc1ccccc1)c1ccc2c(c1)OCCO2 — higher, > 42.5 µg/mL
- O=C(COc1ccccc1Cl)NCCCNC(=O)c1ccncc1 — 3.6-fold higher, 44.7 µg/mL (≈ 129 µM)
- O=C(NC1CCCC1)c1cc(-c2ccc(Cl)cc2Cl)on1 — 12-fold lower, 1 µg/mL (≈ 3.08 µM)
- c1ccc(-c2cc(N3CCCCC3)c3ccccc3n2)cc1 — lower, < 0.3 µg/mL
- COc1ccc(NC(=O)Oc2ccccc2)cc1Cl — within 1.5-fold, 18.4 µg/mL (≈ 66.3 µM)
- CCOC(=O)CNC(=O)C1COc2ccccc2O1 (stereo unspecified) — higher, > 39.8 µg/mL
